Values quoted from earlier work, collected in paper PMC6099102, “Effect of the Nature of Donor Atoms on the Thermodynamic, Kinetic and Relaxation Properties of Mn(II) Complexes Formed With Some Trisubstituted 12-Membered Macrocyclic Ligands” (Frontiers in Chemistry, 2018).
Read-outs that look alike come from different tables or passages of the source.

How the values were obtained:
[1] = cited from earlier work; for pMn: pH = 7.4, cM = cL = 10^−5 M
[2] = cited from earlier work
[3] = cited from earlier work; for Σ log K2H: log K1H + log K2H
[4] = cited from earlier work; remark: listed apart in the source
[5] = Mn(II) complex, I = 0.1 M KCl, ref Takács et al., [2014]
[6] = 0.1 M KCl, ref Takács et al., [2014]
[7] = ref Tircsó and Woods (in preparation)
[8] = I = 0.1 M KCl, ref Forgács et al., [2016]
[9] = Mn(II) complex, I = 0.1 M KCl, ref Forgács et al., [2017]
[10] = I = 0.1 M KCl, ref Forgács et al., [2017]
[11] = Mn(II) complex, ref Garda et al. ([2016])

SMILES: O=C(O)CN1CCN(CC(=O)O)CCN(CC(=O)O)CCN(CC(=O)O)CC1 [DOTA]
- log KML [1, 5]: 19.44
- log KMLH [1, 5]: 3.96
- pMn ([1]; I = 0.1 M KCl, ref Takács et al., [2014]): 9.02
- k1 (proton-assisted dissociation) ([2]; ref Drahos et al., [2011]): 0.040 M⁻¹ s⁻¹
- log K1H [3, 6]: 11.41
- log K2H [3, 6]: 9.83
- log K3H [3, 6]: 4.38
- log K4H [3, 6]: 4.63
- log K5H [3, 6]: 1.92
- log K6H [3, 6]: 1.58
- Σ log K2H [3, 6]: 21.24

SMILES: CC(C(=O)[O-])N1CCN(C(C)C(=O)[O-])CCN(C(C)C(=O)[O-])CCN(C(C)C(=O)[O-])CC1.[Mn+2] (centres unmarked) [[Mn(DOTMA)]^2−]
- r1p [4, 7]: 1.76 mM⁻¹ s⁻¹
- k1 (proton-assisted dissociation) ([2]; 1.0 M KCl, proton-assisted dissociation of the [Mn(H2L)] complex, ref Tircsó and Woods (in preparation)): 3.96e-05 M⁻¹ s⁻¹
- t1/2 0.1 M HCl ([2]; 1.0 M KCl, ref Tircsó and Woods (in preparation)): 103 min
- k0 (spontaneous dissociation) ([2]; 1.0 M KCl, spontaneous dissociation of the [Mn(H2L)] complex, ref Tircsó and Woods (in preparation)): 0.000104 s⁻¹

SMILES: O=C([O-])CN1CCN(CC(=O)O)CCN(CC(=O)[O-])CCN(CC(=O)O)CC1.[Mn+2] [[Mn(H2DOTA)]]
- r1p ([4]; 0.5 T field strength (20 MHz) and 37 °C, ref Wang and Westmoreland ([2009])): 3.20 mM⁻¹ s⁻¹

SMILES: CC(C(=O)[O-])N1CCN(C(C)C(=O)O)CCN(C(C)C(=O)[O-])CCN(C(C)C(=O)O)CC1.[Mn+2] (centres unmarked) [[Mn(H2DOTMA)]]
- r1p [4, 7]: 2.98 mM⁻¹ s⁻¹

SMILES: O=C([O-])CN1CCNCCNCCN(CC(=O)[O-])CC1.[Mn+2] [[Mn(cis-DO2A)]]
- r1p ([4]; ref Rolla et al. ([2013])): 2.10^[a] mM^−1s^−1
- k1 (proton-assisted dissociation) ([2]; ref Garda et al. ([2016])): 100 M⁻¹ s⁻¹
- k2 (proton-assisted dissociation) ([2]; ref Garda et al. ([2016])): 1.6 × 10^6 M^−2s^−1
- t1/2 pH = 7.4 cM = 10^−5 M ([2]; ref Garda et al. ([2016])): 58 h

SMILES: CN(C)C(=O)CN1CCNCCNCCN(CC(=O)N(C)C)CC1.[Mn+2] [[Mn(cis-DO2AM^Me2)]^2+]
- r1p ([4]; ref Forgács et al. ([2016])): 2.50^[h] mM^−1s^−1
- k1 (proton-assisted dissociation) [2, 8]: 8.7 M⁻¹ s⁻¹
- t1/2 0.1 M HCl [2, 8]: 0.0132 min
- t1/2 pH = 7.4 cM = 10^−5 M [2, 8]: 556 h

SMILES: O=C([O-])CN1CCNCCN(CC(=O)[O-])CCNCC1.[Mn+2] [[Mn(trans-DO2A)]]
- r1p ([4]; ref Rolla et al. ([2013])): 1.50^[a] mM^−1s^−1
- k1 (proton-assisted dissociation) ([2]; ref Garda et al. ([2016])): 85 M⁻¹ s⁻¹
- k2 (proton-assisted dissociation) ([2]; ref Garda et al. ([2016])): 3.0 × 10^6 M^−2s^−1
- t1/2 pH = 7.4 cM = 10^−5 M ([2]; ref Garda et al. ([2016])): 48 h

SMILES: O=C(CN1CCNCCNCCN(CC(=O)NCc2ccccc2)CC1)NCc1ccccc1 [cis-DO2AM^Bz2]
- log KML [1, 9]: 10.72
- log KMLOH [1, 9]: 9.44
- pMn [1, 10]: 6.69
- log K1H [3, 10]: 9.62
- log K2H [3, 10]: 6.90
- Σ log K2H [3, 10]: 16.52

SMILES: CN(C)C(=O)CN1CCNCCNCCN(CC(=O)N(C)C)CC1 [cis-DO2AM^Me2]
- log KML ([1]; Mn(II) complex, I = 0.1 M KCl, ref Forgács et al., [2016]): 12.64
- pMn [1, 8]: 6.98
- log K1H [3, 8]: 10.14
- log K2H [3, 8]: 8.38
- Σ log K2H [3, 8]: 18.52

SMILES: O=C(O)CN1CCNCCNCCN(CC(=O)O)CC1 [cis-DO2A]
- log KML [1, 11]: 15.68
- log KMLH [1, 11]: 4.15
- pMn ([1]; ref Garda et al. ([2016])): 7.27
- Σ log K2H ([3]; ref Garda et al. ([2016])): 20.95
- log K1H ([3]; ref Garda et al. ([2016])): 11.44
- log K2H ([3]; ref Garda et al. ([2016])): 9.51
- log K3H ([3]; ref Garda et al. ([2016])): 4.14
- log K4H ([3]; ref Garda et al. ([2016])): 1.55

SMILES: O=C(O)CN1CCNCCN(CC(=O)O)CCNCC1 [trans-DO2A]
- log KML [1, 11]: 14.64
- log KMLH [1, 11]: 4.40
- pMn ([1]; ref Garda et al. ([2016])): 6.52
- Σ log K2H ([3]; ref Garda et al. ([2016])): 21.44
- log K1H ([3]; ref Garda et al. ([2016])): 11.69
- log K2H ([3]; ref Garda et al. ([2016])): 9.75
- log K3H ([3]; ref Garda et al. ([2016])): 3.97
- log K4H ([3]; ref Garda et al. ([2016])): 2.68
